Measured values: patent US20210355223A1, “Combinations for Treating Cancer” (Pfizer Inc., priority 2018, published 2021)

Biological target: IL-2Rαβ (Homo sapiens, UniProt P01589+P14784)
Conditions: relative to IL-2 as standard
Excerpt: The term “CD-122-biased cytokine agonist”, as used herein, refers to an agonist that has a greater affinity for binding to IL-2Rβ than to IL-2Rαβ.

Chain of IL-2Rαβ (P01589 22-240 limits assumed): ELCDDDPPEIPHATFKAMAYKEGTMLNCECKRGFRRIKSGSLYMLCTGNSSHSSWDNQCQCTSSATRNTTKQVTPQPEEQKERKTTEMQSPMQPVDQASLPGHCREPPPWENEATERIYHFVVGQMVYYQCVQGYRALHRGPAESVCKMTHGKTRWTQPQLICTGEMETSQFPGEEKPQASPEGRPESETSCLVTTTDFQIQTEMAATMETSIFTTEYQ
Chain of IL-2Rαβ (P14784 27-240 limits assumed): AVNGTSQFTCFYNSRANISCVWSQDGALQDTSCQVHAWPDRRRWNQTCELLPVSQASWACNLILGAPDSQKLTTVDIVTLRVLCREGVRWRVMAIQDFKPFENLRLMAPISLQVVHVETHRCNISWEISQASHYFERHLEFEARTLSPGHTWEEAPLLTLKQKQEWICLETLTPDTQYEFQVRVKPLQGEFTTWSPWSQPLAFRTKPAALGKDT

decrease in affinity to IL-2Rαβ relative to IL-2: ~60 fold
Substance: (2,7-(bis-methoxyPEG10kD-carboxyamide)(9H-fluorene-9-yl)methyl N-carbamate)6avginterleukin-2 [bempegaldesleukin]
